From ChEMBL document CHEMBL1132103, “Acylcarnitine analogues as topical, microbicidal spermicides” (1999) come the findings set out here.

In brackets after ≈: the same amount, converted by molar mass. Activity calls are given as the source filed them. The rule behind the calls is not given here.

One test relates to Candida albicans. The test can be described thus: Minimum inhibitory concentration required for growth inhibition of Candida albicans. Type of test: functional.
Test [1] concerns Human immunodeficiency virus 1. The test is described as follows: In vitro inhibition of HIV-1 (RF strain) using cell-free inactivation assay at concentration of 0.032 mg/mL. It counts as functional, organism-based.
Test [2] concerns Human immunodeficiency virus 1. The test can be described thus: In vitro inhibition of HIV-1 (RF strain) using cell-free inactivation assay at concentration of 0.1 mg/mL. Type of test: functional, organism-based.
Test [3] relates to Human immunodeficiency virus 1. The test can be described thus: In vitro inhibition of HIV-1 (RF strain) using cell-free inactivation assay at concentration of 0.32 mg/mL. Type of test: functional, organism-based.
The subject of test [4] is Human immunodeficiency virus 1. The test is described as follows: In vitro inhibition of HIV-1 (RF strain) using cell-free inactivation assay at concentration of 1.0 mg/mL. It counts as functional, organism-based.
The test system of test [5] is Human immunodeficiency virus 1. The test is described as follows: In vitro inhibition of HIV-1 (RF strain) using cell-free inactivation assay at concentration of 10 mg/mL. Type of test: functional, organism-based.
Test [6] concerns Human immunodeficiency virus 1. The test can be described thus: In vitro inhibition of HIV-1 (RF strain) using cell-free inactivation assay at concentration of 3.2 mg/mL. Type of test: functional, organism-based.
The species named for test [7] is Homo sapiens. The test can be described thus: In vitro spermicidal activity using spermicidal dilution at 134.4 +/- 14.2 mg/mL in the Sander-Cramer test. Type of test: functional. Particulars: read-out: MEC.
Test [8] has as its system Human immunodeficiency virus 1. The test is described as follows: In vitro inhibition of HIV-1 (RF strain) using cell-free inactivation assay at concentration of 0.032 mg/mL; NA: Not active. It counts as functional, organism-based.
In test [9] the test system is Human immunodeficiency virus 1. The test can be described thus: In vitro inhibition of HIV-1 (RF strain) using cell-free inactivation assay at concentration of 0.1 mg/mL; NA: Not active. Type of test: functional, organism-based.
The species entered for test [10] is Homo sapiens. The test is described as follows: In vitro spermicidal activity using spermicidal dilution at 7.6 +/- 0.4 mg/mL in the Sander-Cramer test. Type of test: functional. Particulars: read-out: MEC.
The species entered for test [11] is Homo sapiens. The test is described as follows: In vitro spermicidal activity using spermicidal dilution at 27.2 +/- 2.3 mg/mL in the Sander-Cramer test. Particulars: read-out: MEC. It counts as functional.
The species entered for test [12] is Homo sapiens. The test is described as follows: In vitro spermicidal activity using spermicidal dilution at 48.0 +/-5.1 mg/mL in the Sander-Cramer test. Type of test: functional. The following applies: read-out: MEC.
The species named for test [13] is Homo sapiens. The test can be described thus: In vitro spermicidal activity using spermicidal dilution at 4.8 +/- 0.5 mg/mL in the Sander-Cramer test. Type of test: functional. Particulars: read-out: MEC.
The species named for test [14] is Homo sapiens. The test is described as follows: In vitro spermicidal activity using spermicidal dilution at 102.4 +/- 13.5 mg/mL in the Sander-Cramer test. It counts as functional. Particulars: read-out: MEC.

The compound `CCCCCCCCCCCCCCC[C@@]1(O)C[N+](C)(C)C[C@@H](CC(=O)[O-])O1` [HEMIACYLCARNITINIUM] displayed an MIC against Candida albicans of 2 µg/mL (≈ 5 µM). For the same compound, the Activity in test [1] is 0.3; in test [2], 1.5; in [3] it was 2.7; in [4], 3.2; in test [5], over 4; in test [6] it was 3.8. In the test filed under Homo sapiens [7], the minimal effective concentration amounted to 109 µg/mL.

`CCCCCCCCCCC[C@@]1(O)C[N+](C)(C)C[C@@H](CC(=O)[O-])O1` yielded an MIC against Candida albicans of over 100 µg/mL. The outcome in test [8] and in test [9] was inactive. Besides, the Activity was found to be 0.8 in test [3], 2 in test [4], 4.7 in [5] and 2.7 in test [6]. The minimal effective concentration in the test listed under Homo sapiens [10] is 1400 µg/mL.

As to `CCCCCCCCCCCC[C@@]1(O)C[N+](C)(C)C[C@@H](CC(=O)[O-])O1`, in the test with Candida albicans, the MIC came out at 80 µg/mL (≈ 224 µM). Moreover, the Activity in test [1] is 0; in test [2] it was 0.3; in test [3], 2; in test [4], 2.8; in [5] it was over 4; in test [6] it was over 3.5. Besides, in the test listed under Homo sapiens [11], the minimal effective concentration is 407 µg/mL.

Take `CCCCCCCCCCCCC[C@@]1(O)C[N+](C)(C)C[C@@H](CC(=O)[O-])O1`: the MIC in the test on Candida albicans was 40 µg/mL (≈ 108 µM). The Activity was determined as 0.5 in test [1]; 1.5 in test [2]; 2.7 in test [3]; 3.3 in [4]; 3.5 in [5]; 3.5 in [6]. In the test filed under Homo sapiens [12], the minimal effective concentration came out at 235 µg/mL.

Consider `CCCCCCCCCC[C@@]1(O)C[N+](C)(C)C[C@@H](CC(=O)[O-])O1`, for which the MIC in the test on Candida albicans was over 100 µg/mL. Moreover, the outcome in [8] and in test [9] was inactive. Moreover, the Activity was 0.8 in test [3], 1 in test [4], over 4 in [5] and 2.8 in test [6]. Besides, in the test listed under Homo sapiens [13], the minimal effective concentration is 2300 µg/mL.

As to `CCCCCCCCCCCCCC[C@@]1(O)C[N+](C)(C)C[C@@H](CC(=O)[O-])O1`, it took 10 µg/mL (≈ 25.9 µM) to inhibit growth with Candida albicans (MIC). For the same compound, the Activity in test [1] is 0.5; in [2], 1.5; in test [3], 2.8; in test [4], 3.5; in test [5], over 4; in test [6], over 4. For the same compound, the minimal effective concentration in the test listed under Homo sapiens [14] was 121 µg/mL.

The MIC is the least concentration at which growth counts as inhibited.
